“And” between values parts separate entries of the source, which are not always exact repeats. Identical values can stand only once.
System: C. difficile ATCC BAA-1870
Assay: MIC of active hits by broth microdilution
Settings: C. difficile ATCC BAA-1870, 48 h anaerobic

Compound	MIC (μM) [µM]	MIC (μg/mL) [µg/mL]	MIC (Clostridioides difficile, ATCCBAA1870, 48 h)
Avermectin B1	16	27.71	–
Cc1cc(SCc2sc(-c3ccc(C(F)(F)F)cc3)nc2C)ccc1OCC(=O)O [GW 501516]	–	–	16 µM and 14.5 µg/mL
Ivermectin	16	14	–
